Read-outs that look alike come from different tables or passages of the source.
Columns and labels:
[1] = target: T1, EphB3 kinase (Homo sapiens, UniProt P54753); experiment: EphB3 kinase inhibition assay (HotSpot); type: biochemical; details: EphB3 kinase, 10 µM compound, 10 µM ATP; read-out: Average % Enzyme Inhibition at 10 µM (Relative to DMSO Control)
T1 construct: purchased Reaction Biology Co. (Kinase HotSpot service)
T1 sequence (P54753 34-998): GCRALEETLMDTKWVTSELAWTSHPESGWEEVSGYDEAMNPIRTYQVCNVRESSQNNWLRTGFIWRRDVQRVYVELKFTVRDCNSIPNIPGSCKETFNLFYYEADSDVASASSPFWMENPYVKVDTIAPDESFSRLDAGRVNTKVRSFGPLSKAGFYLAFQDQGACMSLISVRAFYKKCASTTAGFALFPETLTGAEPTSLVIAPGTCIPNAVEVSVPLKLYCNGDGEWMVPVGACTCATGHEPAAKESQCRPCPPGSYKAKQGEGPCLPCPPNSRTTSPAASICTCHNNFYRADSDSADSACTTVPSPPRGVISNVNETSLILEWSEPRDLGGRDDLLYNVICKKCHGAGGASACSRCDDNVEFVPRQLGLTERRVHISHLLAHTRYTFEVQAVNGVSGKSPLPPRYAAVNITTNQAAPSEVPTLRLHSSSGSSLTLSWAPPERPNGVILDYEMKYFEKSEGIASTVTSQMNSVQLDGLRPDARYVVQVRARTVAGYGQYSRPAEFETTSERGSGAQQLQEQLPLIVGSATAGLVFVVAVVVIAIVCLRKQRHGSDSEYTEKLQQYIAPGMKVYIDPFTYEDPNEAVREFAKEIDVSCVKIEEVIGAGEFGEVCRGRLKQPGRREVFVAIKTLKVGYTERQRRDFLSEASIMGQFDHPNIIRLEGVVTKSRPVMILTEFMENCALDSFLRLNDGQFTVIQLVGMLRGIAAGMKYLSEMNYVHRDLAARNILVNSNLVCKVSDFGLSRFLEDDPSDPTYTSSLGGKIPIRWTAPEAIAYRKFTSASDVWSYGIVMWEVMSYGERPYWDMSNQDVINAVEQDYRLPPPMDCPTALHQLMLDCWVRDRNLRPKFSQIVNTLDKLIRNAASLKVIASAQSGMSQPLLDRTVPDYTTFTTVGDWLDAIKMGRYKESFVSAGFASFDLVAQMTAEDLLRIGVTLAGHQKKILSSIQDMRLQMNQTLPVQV
Description: The synthesized compounds were subjected to in vitro screening over EphB3 kinase. A single dose of 10 µM concentration of each target compound was used in EphB3 kinase inhibition assay, at 10 µM ATP, applying HotSpot^SM technology.
The HotSpot assay platform contains specific kinase/substrate pairs along with required cofactors. Base reaction buffer: 20 mM Hepes (pH 7.5), 10 mM MgCl2, 1 mM EGTA, 0.02% Brij35, 0.02 mg/mL BSA, 0.1 mM Na3VO4, 2 mM DTT, 1% DMSO. The tested compounds were dissolved in 100% DMSO to specific concentration. The serial dilution was conducted by Integra Viaflo Assist in DMSO (Sigma-Aldrich, Burlington, MA, USA). The reaction mixture containing the examined compound and 33P-ATP was incubated at room temperature for 2 h, and radioactivity was detected by filter-binding method. Kinase activity data were expressed as the percent remaining kinase activity in test samples compared to vehicle (dimethyl sulfoxide) reactions. IC50 values and curve fits were obtained using Prism (GraphPad Software, San Diego, CA, USA).

[2] = target: T2, EGFR kinase (Homo sapiens, UniProt P00533); experiment: EGFR kinase inhibition assay (HotSpot); type: biochemical; details: for inhibition at 10 µM / Average % Enzyme Inhibition (Relative to DMSO Controls) at 10 µM: 10 µM compound; for inhibition at 10 µM: 10 µM ATP as printed, read-out: Average % Enzyme Inhibition (Relative to DMSO Controls) at 10 µM; for Average % Enzyme Inhibition (Relative to DMSO Controls) at 10 µM: 10 M [sic] ATP
T2 construct: purchased Reaction Biology Co. (Kinase HotSpot service)

[3] = EGFR kinase, dose dependent assay, read-out: IC50
[4] = EGFR, read-out: EC50 of the curve fit printed in Figure 6 (IC50 per legend)

T2 sequence (P00533 25-1210): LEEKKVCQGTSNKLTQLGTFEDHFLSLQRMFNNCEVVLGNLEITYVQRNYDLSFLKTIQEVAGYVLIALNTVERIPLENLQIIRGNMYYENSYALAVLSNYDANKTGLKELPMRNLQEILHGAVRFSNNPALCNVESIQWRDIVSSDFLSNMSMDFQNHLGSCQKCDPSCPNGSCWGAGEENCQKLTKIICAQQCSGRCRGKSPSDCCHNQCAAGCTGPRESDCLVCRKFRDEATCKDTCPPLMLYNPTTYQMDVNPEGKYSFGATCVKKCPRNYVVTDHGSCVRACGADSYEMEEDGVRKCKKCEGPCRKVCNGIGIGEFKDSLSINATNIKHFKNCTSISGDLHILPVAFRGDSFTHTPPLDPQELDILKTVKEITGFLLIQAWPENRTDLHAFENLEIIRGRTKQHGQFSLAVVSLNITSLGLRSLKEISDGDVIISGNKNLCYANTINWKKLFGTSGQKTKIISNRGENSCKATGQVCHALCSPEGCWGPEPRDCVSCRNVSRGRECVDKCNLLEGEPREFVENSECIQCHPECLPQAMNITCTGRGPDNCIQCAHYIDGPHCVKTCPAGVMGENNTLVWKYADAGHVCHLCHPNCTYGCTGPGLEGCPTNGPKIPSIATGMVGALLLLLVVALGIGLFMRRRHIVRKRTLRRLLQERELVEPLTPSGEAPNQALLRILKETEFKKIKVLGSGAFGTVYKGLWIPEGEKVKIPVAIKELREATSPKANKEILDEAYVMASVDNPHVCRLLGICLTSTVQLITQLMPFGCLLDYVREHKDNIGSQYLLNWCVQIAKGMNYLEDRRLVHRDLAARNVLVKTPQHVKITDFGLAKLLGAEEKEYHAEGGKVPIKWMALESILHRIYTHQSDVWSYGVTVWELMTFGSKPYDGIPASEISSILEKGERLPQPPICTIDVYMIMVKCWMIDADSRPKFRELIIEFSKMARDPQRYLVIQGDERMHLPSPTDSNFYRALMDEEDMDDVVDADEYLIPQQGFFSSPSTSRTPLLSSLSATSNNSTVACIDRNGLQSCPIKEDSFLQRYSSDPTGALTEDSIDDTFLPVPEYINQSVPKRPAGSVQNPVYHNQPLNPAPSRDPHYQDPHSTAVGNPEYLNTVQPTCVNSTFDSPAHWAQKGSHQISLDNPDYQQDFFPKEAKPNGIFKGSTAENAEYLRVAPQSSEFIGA

SMILES	inhibition at 10 µM [1] [%]	inhibition at 10 µM ([2]; EGFR kinase) [%]	Average % Enzyme Inhibition (Relative to DMSO Controls) at 10 µM ([2]; EGFR kinase) [%]	IC50 [2, 3] [nM]	IC50 [2, 4] [nM]	melting point [°C]
NS(=O)(=O)c1ccc(Nc2ncnc3ccc(-c4ccc(C=O)o4)cc23)cc1 [Compound 4b, 4-((6-(5-Formylfuran-2-yl)quinazolin-4-yl)amino)benzenesulfonamide]	26.7 ± 0.45	25.2 ± 1.25				
NS(=O)(=O)c1ccc(Nc2ncnc3ccc(-c4cccnc4)cc23)cc1 [Compound 4a, 4-((6-(Pyridin-3-yl)quinazolin-4-yl)amino)benzenesulfonamide]	25.81 ± 0.24	0.56 ± 4.32				315.1 to 316.2
NS(=O)(=O)c1ccc(Nc2ncnc3ccc(Br)cc23)cc1 [Compound 3a, 4-((6-Bromoquinazolin-4-yl)amino)benzenesulfonamide]	26.97 ± 0.24	-13.2 ± 4.31				322.2 to 324.5
NS(=O)(=O)c1ccc(Nc2ncnc3cc(-c4ccc(CN5CCOCC5)cc4)ccc23)cc1 [Compound 4d, 4-((7-(4-(Morpholinomethyl)phenyl)quinazolin-4-yl)amino)benzenesulfonamide]	18.9 ± 1.09	> 50	65.76 ± 0.98	2760	2760	228.1 to 229.8

The next lines start with the values.

inhibition at 10 µM [1] [%]	inhibition at 10 µM ([2]; EGFR kinase) [%]	Average % Enzyme Inhibition (Relative to DMSO Controls) at 10 µM ([2]; EGFR kinase) [%]	IC50 [2, 3] [nM]	IC50 [2, 4] [nM]	melting point [°C]	SMILES
-21.35 ± 0.09	> 50	63.28 ± 0.21	1060	1060	267.5 to 269	NS(=O)(=O)c1cccc(Nc2ncnc3cc(-c4cccc(CN5CCOCC5)c4)ccc23)c1 [Compound 4e, 3-((7-(3-(Morpholinomethyl)phenyl)quinazolin-4-yl)amino)benzenesulfonamide]
23.5 ± 5.36	4.57 ± 2.16				320 to 321.5	NS(=O)(=O)c1cccc(Nc2ncnc3ccc(-c4cccnc4)cc23)c1 [Compound 4f, 3-((6-(Pyridin-3-yl)quinazolin-4-yl)amino)benzenesulfonamide]
